Laboratory results reported in patent US20070197660A1, “Compounds for modulating cell proliferation” (The Hospital for Sick Children, priority 2003, published 2007).
Read-outs that look alike come from different tables or passages of the source.

Experiments:
Format in all cases: cell-based
Z119 cells = assay: Killing of Philadelphia positive Z119 acute lymphoblastic leukemia cells in culture (colony assay); details: 168 h, Z119 Ph+ ALL cells, colonies >20 cells counted at 7 days or earlier, methylcellulose, read-out: ALL (Z 119) IC 50
Experimental: Z119 cells are plated in 1 mL volumes at a density of 1×10^4 cells/mL, in the absence of exogenous growth factors, into 35 mm petri dishes (Nunc, Gibco) containing IMDM (OCI, Toronto) plus 20% FCS (Cansera Rexdale, ON) in 0.9% (vol/vol) methylcellulose (Fluka, Switzerland) with various concentrations of test compounds. Cultures are set at 37° C., 5% CO2 in a humidified atmosphere. Colonies consisting of more than 20 cells are counted at 7 days or earlier using an inverted microscope. Results see Tables 4 and 8.

NBM (BFU-E) = assay: Effect upon normal bone marrow differentiation in culture (CFU-GEMM assay, BFU-E); details: BFU-E colonies
Excerpt: A CFU-GEMM assay may be performed according to Fauser and Messner (1978, Blood, 52(6) 143-8) and Messner and Fausser (1980, Blut, 41(5) 327-33).

OCI-AML-3 cells = assay: Killing of AML3 acute myeloid leukemia cells in culture (colony assay); details: Homo sapiens, colonies >20 cells scored at 5-6 days, methylcellulose
Experimental: OCI-AML-3 cells are plated in 35 mm petri dishes (Nunc, Gibco) in 1 mL volumes at a density of 3.3×10^3 cells/mL, in the absence of exogenous growth factors, containing alpha MEM plus 20% FCS (Cansera, Rexdale Ont.), and 0.9% (vol/vol) methylcellulose (Fluka, Switzerland) and various concentrations of test compounds. Cell cultures are incubated in a humidified atmosphere at 37° C. with 5% CO2. Colonies containing more than 20 cells are scored, using an inverted microscope, at 5-6 days. Results see Tables 4 and 8.

[1] = Table 4, read-out: NBM (BFU-E) IC 50
[2] = Table 4, read-out: AML (OCI AML-3) IC 50
[3] = Table 8, read-out: NBM (BFU-E) IC 50
[4] = Table 8, read-out: AML (OCI AML-3) IC 50

Compound | IC50 (Z119 cells; Table 4) [nM] | IC50 (NBM (BFU-E); [1]) [nM] | IC50 (OCI-AML-3 cells; [2]) [nM] | IC50 (Z119 cells; Table 8) [nM] | IC50 (NBM (BFU-E); [3]) [nM] | IC50 (OCI-AML-3 cells; [4]) [nM]
COCCOCCOCCOC(=O)/C(C#N)=C/C=C/c1ccc(O)c(O)c1 [CRIV-42, 2-Cyano-5-(3,4-dihydroxyphenyl)-penta-2E,4E-dienoic acid 2-[2-(2-methoxyethoxy)ethoxy]ethyl ester] | ≥ 500 | ≥ 10000 | 90 | – | – | –
COc1cc(/C=C/C=C(\C#N)C(=O)OCc2ccccc2)cc(OC)c1O [CRIX-38, 2-Cyano-5-(4-hydroxy-3,5-dimethoxyphenyl)-penta-2E,4E-dienoic acid benzyl ester] | > 1000 | ≤ 10000 | > 500 | – | – | –
N#C/C(=C\C=C\c1ccc(O)c(O)c1)C(=O)OCc1ccccc1 [CRIX-39, 2-Cyano-5-(3,4-dihydroxyphenyl)-penta-2E,4E-dienoic acid benzyl ester] | ≥ 600 | 8000 | 90 | – | – | –
N#C/C(=C\C=C\c1ccc(O)c(O)c1)S(=O)(=O)c1ccccc1 [CRVIII-33, 2-Benzenesulfonyl-5-(3,4-dihydroxyphenyl)-penta-2E,4E-dienenitrile] | – | – | – | ≥ 550 | 12000 | > 500
COc1cc(/C=C/C=C(\C#N)S(=O)(=O)c2ccccc2)cc(OC)c1O [CRVIII-34, 2-Benzenesulfonyl-5-(4-hydroxy-3,5-dimethoxyphenyl)-penta-2E,4E-dienenitrile] | – | – | – | > 1000 | ≤ 10000 | > 500
N#C/C(=C\C=C\c1ccc([N+](=O)[O-])cc1)S(=O)(=O)c1ccccc1 [CRVIII-35, 2-Benzenesulfonyl-5-(4-nitrophenyl)-penta-2E,4E-dienenitrile] | – | – | – | > 1000 | > 5000 | > 500
N#C/C(=C\C=C\c1ccc(O)c(O)c1)S(=O)(=O)c1ccccn1 [CRVIII-50, 5-(3,4-Dihydroxyphenyl)-2-(pyridine-2-sulfonyl)-penta-2E,4E-dienenitrile] | – | – | – | ≥ 170 | ≤ 5000 | ≥ 250
N#C/C(=C\C=C\c1ccc(O)c(O)c1)S(=O)(=O)c1ccc(Cl)cc1 [CRVIII-51, 2-(4-Chlorobenzenesulfonyl)-5-(3,4-dihydroxyphenyl)-penta-2E,4E-dienenitrile] | – | – | – | 230 | ≥ 5000 | 250 to 500
Cc1ccc(S(=O)(=O)/C(C#N)=C/C=C/c2ccc(O)c(O)c2)cc1 [CRVIII-52, 5-(3,4-Dihydroxyphenyl)-2-(toluene-4-sulfonyl)-penta-2E,4E-dienenitrile] | – | – | – | 250 to 500 | ≤ 10000 | 250 to 500
CS(=O)(=O)/C(C#N)=C/C=C/c1ccc(O)c(O)c1 [CRVIII-53, 5-(3,4-Dihydroxyphenyl)-2-methanesulfonyl-penta-2E,4E-dienenitrile] | – | – | – | 450 | ≤ 10000 | 250 to 500
COCCOCCOCCOC(=O)/C(C#N)=C/C=C/c1cc(OC)c(O)c(OC)c1 [GRIV-46, 2-Cyano-5-(4-hydroxy-3,5-dimethoxyphenyl)-penta-2E,4E-dienoic acid 2-[2-(2-methoxyethoxy)ethoxy]ethyl ester] | > 500 | ≥ 10000 | ≥ 500 | – | – | –
